What was measured:
Assay in all cases: relative viability (nuclei count vs DMSO), 5 days (fraction); higher = more cells survive
[1] = compound: CC1=NN=C(O1)C2=NN=C(C=C2)N3CCC(CC3)OC4=C(C=CC(=C4)F)Cl + N=C(N)NC(=N)NCCc1ccccc1 [Phenformin] (partner 250 µM)
Summary of the method: (§1)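 Lung cancer cell lines were pin-tool dosed in 1536-well plates on the day after seeding, with either a lone drug or a fixed anchor-drug dose plus five library-drug doses (not always all listed) in √10 steps. Nuclei were counted on 4× images after 5 days. Relative viability is the ratio of treated-well to vehicle-well nuclei counts, with each value a median of duplicate plates.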

[2] = compound: CC1=NN=C(O1)C2=NN=C(C=C2)N3CCC(CC3)OC4=C(C=CC(=C4)F)Cl
Summary of the method: (§2)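 Lung cancer cell lines in 1536-well plates were exposed by pinning to five library-drug doses (not always all listed) √10 apart, following an overnight hold at 37 °C. MetaXpress counted Hoechst-stained nuclei from 4× images taken after 5 days without medium change. Viability is the median ratio of treated-well to vehicle-well nuclei across plates. Plates required control CV below 25% and at least one doubling.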

Tosedostat = compound: CC(C)C[C@@H](C(=O)N[C@H](C(=O)OC1CCCC1)c1ccccc1)[C@H](O)C(=O)NO [Tosedostat]
Summary of the method: as §2

Tosedostat + Navitoclax = compound: CC(C)C[C@@H](C(=O)N[C@H](C(=O)OC1CCCC1)c1ccccc1)[C@H](O)C(=O)NO [Tosedostat] + CC1(C)CCC(c2ccc(Cl)cc2)=C(CN2CCN(c3ccc(C(=O)NS(=O)(=O)c4ccc(N[C@H](CCN5CCOCC5)CSc5ccccc5)c(S(=O)(=O)C(F)(F)F)c4)cc3)CC2)C1 [Navitoclax] (partner 0.5 µM)
Summary of the method: as §1

Cell Line	relative viability ([1]; first compound 0.253 µM)	relative viability ([1]; first compound 0.8 µM)	relative viability ([1]; first compound 2.53 µM)	relative viability ([1]; first compound 8 µM)	relative viability ([2]; 0.253 µM)	relative viability ([2]; 0.8 µM)	relative viability ([2]; 2.53 µM)	relative viability ([2]; 8 µM)	relative viability (Tosedostat; 0.02 µM)	relative viability (Tosedostat; 0.06325 µM)	relative viability (Tosedostat; 0.2 µM)	relative viability (Tosedostat; 0.6325 µM)	relative viability (Tosedostat; 2 µM)	relative viability (Tosedostat + Navitoclax; first compound 0.02 µM)	relative viability (Tosedostat + Navitoclax; first compound 0.06325 µM)	relative viability (Tosedostat + Navitoclax; first compound 0.2 µM)	relative viability (Tosedostat + Navitoclax; first compound 0.6325 µM)	relative viability (Tosedostat + Navitoclax; first compound 2 µM)
NCI-H522	0.679	0.632	0.855	0.526	0.964	0.933	0.957	0.955	0.908	1.01	0.897	1.05	1.01	–	–	–	–	–
HCC-15	0.441	0.396	0.427	0.428	0.463	0.449	0.456	0.464	1.05	0.89	0.996	0.901	0.848	0.772	0.729	0.684	0.659	0.57
A-427	0.285	–	0.278	0.258	0.904	–	0.956	0.789	1.04	0.955	0.992	0.941	0.908	0.921	0.925	0.999	1.03	0.925
NCI-H3122	0.324	0.282	0.253	0.275	0.47	0.444	0.478	0.432	1.06	1.01	1.03	1.02	1.02	1.05	1.05	0.996	1.05	1.03
NCI-H1915	0.377	0.287	0.332	0.243	0.607	0.341	0.497	0.407	1.15	0.949	0.998	0.988	0.891	0.801	0.775	0.783	0.743	0.711
NCI-H1355	0.405	0.37	0.446	0.411	0.685	0.592	0.915	0.82	0.961	0.936	1.04	0.838	0.905	0.766	0.795	1.05	0.979	0.803
NCI-H2023	0.401	0.362	0.387	0.324	0.513	0.451	0.579	0.431	1.05	0.916	0.937	0.713	0.942	1.07	0.989	1.05	0.938	0.923
NCI-H1755	0.567	0.565	0.523	0.56	0.661	0.746	0.759	0.731	1	0.999	1.05	1	0.971	1.05	1.05	1.01	0.931	0.958
HCC-366	0.286	0.285	0.309	0.288	0.484	0.469	0.508	0.482	1.02	1.01	1.03	0.979	1.01	1.15	1.01	1.02	1.01	1.11
SK-MES-1	0.58	0.532	0.475	0.414	0.859	0.79	0.912	0.783	1.03	1.02	1.01	0.965	0.953	1.23	1.29	1.29	1.11	1
NCI-H596	0.648	0.611	0.697	0.525	0.982	0.806	1.06	0.813	1.03	1.08	1.12	1.01	0.967	1.01	1.06	1.01	0.996	0.805
RERF-LC-KJ	0.389	0.434	0.466	0.392	0.653	0.628	0.652	0.647	0.953	1.03	0.944	0.888	0.876	1.03	0.953	0.948	0.517	0.614
LOU-NH91	0.64	0.598	0.69	0.679	–	0.866	0.908	0.957	1.04	1.01	0.937	0.919	0.86	0.753	0.657	0.615	0.543	0.483
NCI-H1623	0.568	0.545	0.627	0.574	0.897	0.734	0.918	0.926	1.06	0.895	0.907	0.798	0.965	–	–	–	–	–
Calu-6	–	–	–	–	0.673	0.682	0.694	0.61	1.08	0.925	0.928	0.831	0.733	0.919	0.787	0.655	0.668	0.461
LC-2-ad	0.496	0.489	0.51	0.472	0.407	0.431	0.44	0.409	1.13	1.02	0.963	0.871	0.818	0.614	0.419	0.473	0.386	0.264
